From patent US20260262643A1, “HERBICIDAL BENZOXAZINES” (FMC CORPORATION, priority 2022, published 2026) come the findings set out here.

In experiment [1] the test system is blackgrass. Briefly: Test A preemergence. Type of experiment: in vivo, Alopecurus myosuroides. Conditions: for pest or weed control at 125 g/ha / pest or weed control at 500 g/ha: Alopecurus myosuroides, pre-emergence, 240 h, read-out: Plant response rating, Blackgrass. The method in brief:
(§1)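 Weeds and crops in loam–sand blend were sprayed preemergence onto soil or postemergence at 2–10 cm (one- to two-leaf stage). Test chemicals were in a non-phytotoxic solvent with surfactant. After 10 days in the greenhouse, injury was rated visually against untreated controls on a 0 (no effect) to 100 (complete control) scale.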

For experiment [2], the system named is foxtail, giant. In words: Test A preemergence. Format: in vivo, Setaria faberi. The settings on record: for pest or weed control at 125 g/ha: 125 g ai/ha. A digest of the protocol:
as §1

Experiment [3] relates to soybean. Briefly: Test A preemergence. Type of experiment: in vivo, Glycine max. Conditions: for plant injury at 125 g/ha / plant injury at 500 g/ha: Glycine max, pre-emergence, 240 h, read-out: Plant response rating, Soybean; for plant injury at 125 g/ha: 125 g ai/ha. A digest of the protocol:
as §1

Experiment [4] concerns blackgrass. In words: Test A postemergence. Conditions: postemergence, 10 days; for pest or weed control at 125 g/ha / pest or weed control at 500 g/ha: Alopecurus myosuroides, post-emergence, 240 h; for pest or weed control at 125 g/ha: read-out: Blackgrass plant response rating; for pest or weed control at 500 g/ha: read-out: Plant response rating, Blackgrass. Format: in vivo, Alopecurus myosuroides. A digest of the protocol:
as §1

The subject of experiment [5] is foxtail, giant. Briefly: Test A postemergence. Conditions: postemergence, 10 days, 0 to 100 scale (0 no effect, 100 complete control); for pest or weed control at 125 g/ha: 125 g ai/ha, read-out: Foxtail, Giant plant response rating. Format: in vivo, Setaria faberi. A digest of the protocol: as §1
The test system of experiment [6] is oat, wild. Briefly: Test A postemergence. Type of experiment: in vivo, Avena fatua. Conditions: postemergence, 10 days; for pest or weed control at 125 g/ha / pest or weed control at 500 g/ha: Avena fatua, post-emergence, 240 h; for pest or weed control at 125 g/ha: read-out: Oat, Wild plant response rating; for pest or weed control at 500 g/ha: read-out: Plant response rating, Oat, Wild. A digest of the protocol: as §1

For experiment [7], the system named is pigweed, palmer. Briefly: Test A postemergence. Conditions: postemergence, 10 days, 0 to 100 scale (0 no effect, 100 complete control); for pest or weed control at 125 g/ha / pest or weed control at 500 g/ha: Amaranthus palmeri, post-emergence, 240 h; for pest or weed control at 125 g/ha: 125 g ai/ha, read-out: Pigweed, Palmer plant response rating; for pest or weed control at 500 g/ha: read-out: Plant response rating, Pigweed, Palmer. Format: in vivo, Amaranthus palmeri. A digest of the protocol:
as §1

In experiment [8] the test system is ragweed. In words: Test A postemergence. Format: in vivo, Ambrosia artemisiifolia. The settings on record: postemergence, 10 days, 0 to 100 scale (0 no effect, 100 complete control); for pest or weed control at 125 g/ha / pest or weed control at 500 g/ha: Ambrosia artemisiifolia, post-emergence, 240 h; for pest or weed control at 125 g/ha: 125 g ai/ha, read-out: Ragweed plant response rating; for pest or weed control at 500 g/ha: read-out: Plant response rating, Ragweed. A digest of the protocol:
as §1

In experiment [9] the test system is ryegrass, Italian. Briefly: Test A postemergence. Type of experiment: in vivo, Lolium multiflorum. The settings on record: postemergence, 10 days, 0 to 100 scale (0 no effect, 100 complete control); for pest or weed control at 125 g/ha / pest or weed control at 500 g/ha: Lolium multiflorum, post-emergence, 240 h; for pest or weed control at 125 g/ha: 125 g ai/ha, read-out: Ryegrass, Italian plant response rating; for pest or weed control at 500 g/ha: read-out: Plant response rating, Ryegrass, Italian. A digest of the protocol:
as §1

Experiment [10] deals with wheat. In words: Test A postemergence. Type of experiment: in vivo, Triticum aestivum. The settings on record: postemergence, 10 days, 0 to 100 scale (0 no effect, 100 complete control); for plant injury at 125 g/ha / plant injury at 500 g/ha: Triticum aestivum, post-emergence, 240 h; for plant injury at 125 g/ha: 125 g ai/ha, read-out: Wheat plant response rating; for plant injury at 500 g/ha: read-out: Plant response rating, Wheat. The method in brief: as §1

Experiment [11] relates to galium. In words: Test A postemergence. Format: in vivo, Galium aparine. Conditions: postemergence, 10 days, 0 to 100 scale (0 no effect, 100 complete control); for pest or weed control at 125 g/ha / pest or weed control at 500 g/ha: Galium, post-emergence, 240 h; for pest or weed control at 125 g/ha: 125 g ai/ha, read-out: Galium plant response rating; for pest or weed control at 500 g/ha: read-out: Plant response rating, Galium. The method in brief: as §1

For experiment [12], the system named is sedge, umbrella. In words: Test B flooded paddy test. Type of experiment: in vivo, Cyperus difformis. Conditions: 250 g ai/ha, Flood, 13 days, 0 to 100 scale (0 no effect, 100 complete control); for pest or weed control at 250 g/ha: Cyperus difformis, 312 h, read-out: Plant response rating, Sedge, Umbrella. A digest of the protocol:
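Application into standing water (3 cm above soil) at the two-leaf stage; flood depth held constant. Evaluation: day 13, visual comparison with controls, 0 = no injury, 100 = complete control.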

Where [13] appears, read: 500 g ai/ha, 0 to 100 scale (0 no effect, 100 complete control), 10 days.
The mark [14] stands for this setting: 125 g ai/ha, 0 to 100 scale (0 no effect, 100 complete control).
Where [15] appears, read: 500 g ai/ha, visual injury, 0 to 100 scale (0 no effect, 100 complete control).
The mark [16] stands for this setting: Setaria faberi, post-emergence, 240 h.
Setting [17] is: 500 g ai/ha, visual injury after 10 days, 0 to 100 scale, 0 is no effect, 100 is complete control.
The mark [18] stands for this setting: 125 g ai/ha, 0 to 100 scale, 0 no effect, 100 complete control.

Read-outs that look alike come from different tables or passages of the source.

As to `Cc1cccc2c1O[C@@H](C)CN2C(=O)c1cccc(-n2cnc(C3COC3)n2)c1` [Compound 109, [(2S)-2,3-Dihydro-2,8-dimethyl-4H-1,4-benzoxazin-4-yl][3-[3-(3-oxetanyl)-1H-1,2,4-triazol-1-yl]phenyl]methanone], the pest or weed control at 125 g/ha came to 80% in experiment [1] (125 g ai/ha, visual injury after 10 days, 0 to 100 scale, 0 is no effect, 100 is complete control); 100% in experiment [2] (Setaria faberi, pre-emergence, 240 h, visual injury after 10 days, 0 to 100 scale, 0 is no effect, 100 is complete control, read-out: Plant response rating, Foxtail, Giant); 70% in experiment [4] (setting [14]); 70% in experiment [5] (setting [16]); 80% in experiment [6] (setting [14]); 60% in experiment [7]. The figures for the pest or weed control at 125 g/ha in [8], in [9] and in [11] were 0%, 50% and 70%, respectively. Also, the pest or weed control at 500 g/ha stood at 90% in experiment [1] (setting [13]); 100% in experiment [2] (Setaria faberi, pre-emergence, 240 h, 500 g ai/ha, 0 to 100 scale (0 no effect, 100 complete control), 10 days, read-out: Plant response rating, Foxtail, Giant); 90% in experiment [4] (setting [15]); 90% in [5] (Setaria faberi, post-emergence, 240 h, 500 g ai/ha, visual injury, read-out: Plant response rating, Foxtail, Giant); 80% in experiment [6] (setting [15]); 60% in experiment [7] (500 g ai/ha, visual injury). Further, the pest or weed control at 500 g/ha amounted to 50% in experiment [8] (500 g ai/ha, visual injury); 100% in experiment [9] (500 g ai/ha, visual injury); 100% in experiment [11] (500 g ai/ha, visual injury). Also, the plant injury at 125 g/ha was determined as 30% in experiment [3] (visual injury after 10 days, 0 to 100 scale, 0 is no effect, 100 is complete control) and 40% in experiment [10]. Further, the plant injury at 500 g/ha in experiment [3] (setting [13]) is 80%; in experiment [10] (500 g ai/ha, visual injury), 90%. The pest or weed control at 250 g/ha in experiment [12] turned out to be 98%.

Turning to `CC(C)c1ncn(-c2cc(C(=O)N3C[C@H](C)Oc4c(Cl)cccc43)c3ccccc3c2)n1` [Compound 146], the “Plant response rating, Blackgrass” value is on record as 70 in [1] (125 g ai/ha, 0 to 100 scale); 90 in [1] (setting [17]); 20 in experiment [4] (setting [15]). Moreover, the “Plant response rating, Foxtail, Giant” value in experiment [2] (setting [17]) was 100; in experiment [5] (500 g ai/ha, visual injury), 50. For the same molecule, the pest or weed control at 125 g/ha was 80% in [2] (Setaria faberi, pre-emergence, 240 h, 0 to 100 scale, read-out: Plant response rating, Foxtail, Giant); 30% in experiment [5] (setting [16]); 70% in experiment [7]; 0% in experiment [8]; 20% in experiment [9]; 50% in experiment [11]. For the same molecule, in experiment [3] (setting [17]), the “Plant response rating, Soybean” value was 20. For the same molecule, the values for the plant injury at 125 g/ha in experiment [3] (0 to 100 scale) and in experiment [10] were 0% and 20%, respectively. Moreover, in experiment [4] (setting [18]), the “Blackgrass plant response rating” value amounted to 10. Besides, the “Oat, Wild plant response rating” value in [6] (setting [18]) came out at 0. Besides, in [6] (setting [15]), the “Plant response rating, Oat, Wild” value was 10. Further, in experiment [7] (500 g ai/ha, visual injury), the “Plant response rating, Pigweed, Palmer” value amounted to 70. Further, the “Plant response rating, Ragweed” value in [8] (500 g ai/ha, visual injury) was 0. In addition, in [9] (500 g ai/ha, visual injury), the “Plant response rating, Ryegrass, Italian” value worked out at 40. Also, the “Plant response rating, Wheat” value in experiment [10] (500 g ai/ha, visual injury) is 30. Further, the “Plant response rating, Galium” value in experiment [11] (500 g ai/ha, visual injury) stood at 80. In [12], the “Plant response rating, Sedge, Umbrella” value amounted to 0.

For the molecule `CC(C)c1ncn(-c2cc3c(c(C(=O)N4C[C@H](C)Oc5c(Cl)cccc54)c2)OCC3)n1` [Compound 147], the pest or weed control at 125 g/ha in [1] (125 g ai/ha, 0 to 100 scale) worked out at 20%; in experiment [4] (setting [14]) it was 70%; in experiment [6] (setting [14]) it was 30%; in experiment [7] it was 80%; in experiment [8], 0%; in [9] it was 50%. Also, the pest or weed control at 125 g/ha in [11] is 100%. In addition, the pest or weed control at 500 g/ha in experiment [1] (setting [17]) came out at 90%; in [4] (setting [15]), 100%; in experiment [6] (setting [15]), 80%; in [7] (500 g ai/ha, visual injury), 90%; in [8] (500 g ai/ha, visual injury), 30%; in experiment [9] (500 g ai/ha, visual injury) it was 80%. The pest or weed control at 500 g/ha in experiment [11] (500 g ai/ha, visual injury) is 100%. The plant injury at 125 g/ha in experiment [3] (0 to 100 scale) stood at 0%; in [10], 10%. In addition, the plant injury at 500 g/ha in experiment [3] (setting [17]) came to 100%; in [10] (500 g ai/ha, visual injury), 60%. In experiment [12], the pest or weed control at 250 g/ha is 95%.
